Experimental findings from ChEMBL document CHEMBL1141913, “Novel 2-aminothiazonaphthalimides as visible light activatable photonucleases: effects of intercalation, heterocyclic-fused area and side chains” (Bioorg Med Chem Lett, 2005) are described below.

The experiment deals with Calf thymus DNA. In words: Scatchard binding constant between calf thymus DNA (CT-DNA) measured in 30 mM Tris HCl buffer at pH 7.5. The format is nucleic-acid assay. The conditions noted are these: Bos taurus.

In turn, `CN(C)CCCN1C(=O)c2cccc3c2c(cc2nc(N)sc23)C1=O` had a Binding constant of 28700 M⁻¹. The result for `CN(C)CCCN1C(=O)c2cccc3cc4nc(N)sc4c(c23)C1=O` reads 47300 M⁻¹. As to `CN(C)CCN1C(=O)c2cccc3c2c(cc2nc(N)sc23)C1=O`, the Binding constant worked out at 19800 M⁻¹. Take `CN(C)CCN1C(=O)c2cccc3cc4nc(N)sc4c(c23)C1=O`: the Binding constant amounted to 25600 M⁻¹.
